The subject of test [1] is NCI-H358 cells. Briefly: 3D cell proliferation assay (Cell Titer-Glo 3D, 7 days). In kind it is cell-based. The following applies: NCI-H358 3D, ultra-low attachment plate. How it is done: NCI-H358 cells (ATCC® CRL-5807™) were plated in a 384-well Black/Clear Round Bottom Ultra-Low Attachment Microplate (Corning) in medium (RPMI-1640+10% FBS) at a density of 1000 cells in 50 μL per well, then incubated overnight at 37° C. and 5% CO2. Cells were treated with test compounds at 9 concentrations within a specified concentration range (e.g., 0.5 nM-10 μM) for generation of dose response curves. Test compounds were prepared by 1:3 serial dilution in DMSO from a specified starting concentration (e.g., 20 μM, 2 μM or 0.2 μM) and then added to wells of the assay plate in a total volume of 150 nL DMSO. The cells were further incubated at 37° C. and 5% CO2 for 7 days. Cell viability was assessed by adding 40 μL of Cell Titer-Glo® 3D reagent (Cat. No.: G9683, Promega) to each well and reading luminescence after mixing and incubation of the samples. The IC50 value of each test compound was calculated with XLFit curve fitting software.
(In ATP-based viability assays light output follows the ATP content of the culture.)

Test [2] addresses KRAS G12C protein (Homo sapiens, UniProt P01116, G12C). Briefly: Nucleotide exchange assay (Method III, KRAS G12C/Raf-RBD TR-FRET). The note with it: SOS1-mediated exchange of GDP for GTP, 18 hr compound incubation. In kind it is biochemical. Here is the method: Method III. Inhibition of SOS1-mediated exchange of GDP for GTP on the KRAS G12C protein was measured in a biochemical assay that monitors association of KRAS G12C protein with the Ras-binding domain of Raf (Raf-RBD), where the association is coupled to exchange of GDP to GTP on the KRAS G12C protein. The assay was performed at WuXi AppTec (Shanghai, China). Compounds were serially diluted in 3-fold dilutions to 11 concentrations and spotted into the wells of an assay plate in a total volume of 150 nL DMSO per well. A 2× enzyme mix was prepared by diluting GDP-bound, His-tagged KRAS G12C to 25 nM in assay buffer. 10 μL/well of 2× enzyme mix was added to all wells, and the plate was sealed and incubated overnight (18 hr) at 23° C. 4×SOS1/GDP and 4×SOS1/GTP were prepared in assay buffer. 5 μL/well of 4×SOS1/GDP mix was added to negative control wells, 5 μL/well of 4×SOS1/GTP mix was added to the remaining wells, and the plate was further incubated at 23° C. for 1 hr. Finally, FLAG-tagged Raf-RBD is added to the reaction mixture along with a pair of FRET donor- and acceptor-conjugated antibodies specific for the FLAG-tagged Raf-RBD and His-tagged KRAS G12C proteins. A 4×Raf-RBD/Tb-anti-FLAG/D2-anti-His mix was prepared in assay buffer, and 5 μL/well of the mix was added to all wells, followed by incubation at room temperature for 2 hr. The TR-FRET signals, which increase with association of KRAS G12C and Raf-RBD, were measured on a Perkin Elmer Envision 2104 plate reader, and data were analyzed by non-linear regression to obtain IC50 values for inhibition by compounds. Table 2 includes results of the assay of Method III. ‘+++’ indicates IC50 values≤300 nM, ‘++’ indicates IC50 values between 300 nM-3 μM, and ‘+’ indicates IC50 values≥3 μM.
Background: In TR-FRET formats the signal depends on donor and acceptor labels being close together.

Test [3] has as its system MIA PaCa-2. The test is described as follows: Cell proliferation assay panel (Cell Titer-Glo, 72 hr). In kind it is cell-based. How it is done: Potency of compounds was determined in cell proliferation assays in a panel of cancer cell lines. Cells were seeded in 384-well plates (Corning, Cat. #3765) at specified densities in 40 μL of culture medium and incubated overnight at 37° C. in a 5% CO2 incubator (culture conditions). With a robotic dispenser, serially diluted test compounds were added in a volume of 20 nL DMSO to wells in the culture plate to achieve the final desired concentrations of test compounds, and the cells were further incubated in culture conditions for 72 hr. The assay was terminated by addition of 25 μL of Cell Titer-Glo reagent (Promega, Madison, Wis.) to each well. Contents were mixed, the plate was incubated for 10 min at room temperature and luminescence was measured. The IC50 value of each test compound was calculated with XLFit curve fitting software. Results are shown in Table 4. ‘+++’ indicates IC50 values≤300 nM, ‘++’ indicates IC50 values between 300 nM-3 μM, and ‘+’ indicates IC50 values≥3 μM.

For orientation: pIC50 means the IC50 on a negative log10 scale, so that one unit is a factor of ten.

pIC50: −log10 of the molar value. Like-named read-outs stand apart in the source and are kept apart here.

Chain of KRAS G12C protein (P01116 1-188 isoform P01116-2 G12C): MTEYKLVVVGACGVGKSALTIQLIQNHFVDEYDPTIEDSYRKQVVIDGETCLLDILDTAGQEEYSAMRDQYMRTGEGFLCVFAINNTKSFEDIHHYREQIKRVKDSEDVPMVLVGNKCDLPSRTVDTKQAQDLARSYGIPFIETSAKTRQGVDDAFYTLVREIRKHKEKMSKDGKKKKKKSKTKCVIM

As to `C=CC(=O)N1CCN(c2nc(OC[C@@H]3CCCN3C)nc3c2COC(c2cccc4cccc(Cl)c24)C3)CC1` (single isomer, unassigned) [40 (Isomer A)], the pIC50 in test [1] is 5.70 to 7.00; in test [2], no less than 6.52.
For `C=CC(=O)N1CCN(c2nc(OC[C@@H]3CCCN3C)nc3c2COC(c2cccc4cccc(Cl)c24)C3)CC1` (single isomer, unassigned) [40 (Isomer B)], the pIC50 in test [1] is no more than 5.70; in test [2], no more than 5.52.
As to `C=C(F)C(=O)N1CCN(c2nc(OC[C@@H]3CCCN3C)nc3c2CO[C@H](c2cccc4cccc(Cl)c24)C3)C[C@@H]1CC#N` (single isomer, unassigned) [43 (Isomer A)], the pIC50 is no more than 5.70 in test [1] (Homo sapiens, NCI-H358, 168 h) and no more than 5.52 in test [2].
As to `C=C(F)C(=O)N1CCN(c2nc(OC[C@@H]3CC(F)(F)CN3C)nc3c2COC(c2cccc4cccc(Cl)c24)C3)C[C@@H]1CC#N` (single isomer, unassigned) [228 (Isomer A)], the pIC50 is 5.52 to 6.52 in test [3] (Homo sapiens, MIA PaCa-2, 72 h); no less than 7.00 in test [1]; no less than 6.52 in test [2].
As for `C=C(F)C(=O)N1CCN(c2nc(OC[C@@H]3CC(F)(F)CN3C)nc3c2COC(c2cccc4cccc(Cl)c24)C3)C[C@@H]1CC#N` (single isomer, unassigned) [228 (Isomer B)], the pIC50 in test [1] was no more than 5.70; in test [2], no more than 5.52.
Take `C=C(Cl)C(=O)N1CCN(c2nc(OC[C@@H]3CCCN3C)nc3c2COC(c2cccc4cccc(Cl)c24)C3)C[C@@H]1CC#N` (single isomer, unassigned) [239 (Isomer B)]: the pIC50 in test [3] (Homo sapiens, MIA PaCa-2, 72 h) is no less than 6.52; in test [1] (Homo sapiens, NCI-H358, 168 h), no less than 7.00; in test [2], no less than 6.52.
In the case of `C=C(F)C(=O)N1CCN(c2nc(Oc3cccc4c3CCN(C)C4)nc3c2COC(c2cccc4cccc(Cl)c24)C3)C[C@@H]1CC#N` (single isomer, unassigned) [250 (Isomer B)], in test [2], the pIC50 was 5.52 to 6.52.
Same read-out and setting: in the case of `C=C(F)C(=O)N1CCN(c2nc(OC[C@@H]3CCCN3C)nc3c2COC(c2cccc4cccc(Cl)c24)C3(C)C)C[C@@H]1CC#N` (single isomer, unassigned) [258 (Isomer A)] it was no more than 5.52.
For `C=C(F)C(=O)N1CCN(c2nc(OC[C@@H]3CCCN3C)nc3c2COC(c2cccc4cccc(Cl)c24)C3(C)C)C[C@@H]1CC#N` (single isomer, unassigned) [258 (Isomer B)], the negative logarithm of the IC50 (pIC50) was no less than 6.52 in test [3] (Homo sapiens, MIA PaCa-2, 72 h); no less than 7.00 in test [1] (Homo sapiens, NCI-H358, 168 h); no less than 6.52 in test [2].
Regarding `C=C(F)C(=O)N1CCN(c2nc(OC[C@@H]3CCCN3C)nc3c2COC(c2nc(N)cc4ccccc24)C3)C[C@@H]1CC#N` (single isomer, unassigned) [259 (Isomer A)], the values for the pIC50 in test [3] and in test [2] were no more than 5.52 and 5.52 to 6.52, respectively.
With `C=C(F)C(=O)N1CCN(c2nc(OC[C@@H]3CCCN3C)nc3c2COC(c2nc(N)cc4ccccc24)C3)C[C@@H]1CC#N` (single isomer, unassigned) [259 (Isomer B)], the pIC50 in test [3] and in test [2] was no less than 6.52 throughout.
In the case of `C=C(F)C(=O)N1CCN(c2nc(OC[C@@H]3CCCN3C)nc3c2COC(c2cccc4sc(N)nc24)C3)C[C@@H]1CC#N` (single isomer, unassigned) [260 (Isomer A)], the pIC50 in test [3] (Homo sapiens, MIA PaCa-2, 72 h) is 5.52 to 6.52; in test [1] (Homo sapiens, NCI-H358, 168 h) it was 5.70 to 7.00; in test [2], no less than 6.52.
`C=C(F)C(=O)N1CCN(c2nc(OC[C@@H]3CCCN3C)nc3c2COC(c2cccc4sc(N)nc24)C3)C[C@@H]1CC#N` (single isomer, unassigned) [260 (Isomer B)] showed a pIC50 in test [2] of no less than 6.52.
Take `C=C(F)C(=O)N1CCN(c2nc(OCC34CCCN3CCC4)nc3c2COC(c2cccc4cccc(Cl)c24)C3)C[C@@H]1CC#N` (single isomer, unassigned) [266 (Isomer A)]: the pIC50 was 5.52 to 6.52 in test [3] (Homo sapiens, MIA PaCa-2, 72 h) and 5.52 to 6.52 in test [2].
Consider `C=C(F)C(=O)N1CCN(c2nc(OCC34CCCN3CCC4)nc3c2COC(c2cccc4cccc(Cl)c24)C3)C[C@@H]1CC#N` (single isomer, unassigned) [266 (Isomer B)], for which the pIC50 in test [3] is no less than 6.52; in test [1] (Homo sapiens, NCI-H358, 168 h), no less than 7.00; in test [2], no less than 6.52.
With `C=C(F)C(=O)N1CCN(c2nc(OC[C@H]3CCCN3C)nc3c2COC(c2cccc4cccc(Cl)c24)C3)C[C@@H]1CC#N` (single isomer, unassigned) [267 (Isomer A)], the pIC50 in test [3] was no more than 5.52; in test [2] it was 5.52 to 6.52.
Consider `C=C(F)C(=O)N1CCN(c2nc(OC[C@H]3CCCN3C)nc3c2COC(c2cccc4cccc(Cl)c24)C3)C[C@@H]1CC#N` (single isomer, unassigned) [267 (Isomer B)], for which the pIC50 in test [3] and in test [2] was no less than 6.52 each time.
With `C=C(F)C(=O)N1CCN(c2nc(OC3CN(C)CC3C)nc3c2COC(c2cccc4cccc(Cl)c24)C3)C[C@@H]1CC#N` (single isomer, unassigned) [272 (Isomer A)], the pIC50 in test [2] was no more than 5.52.
Same read-out and setting: in the case of `C=C(F)C(=O)N1CCN(c2nc(OC3CN(C)CC3C)nc3c2COC(c2cccc4cccc(Cl)c24)C3)C[C@@H]1CC#N` (single isomer, unassigned) [272 (Isomer B)] it was no more than 5.52; in that of `C=C(F)C(=O)N1CCN(c2nc(OC3CN(C)CC3C)nc3c2COC(c2cccc4cccc(Cl)c24)C3)C[C@@H]1CC#N` (single isomer, unassigned) [272 (Isomer C)], no less than 6.52; in that of `C=C(F)C(=O)N1CCN(c2nc(OC3CN(C)CC3C)nc3c2COC(c2cccc4cccc(Cl)c24)C3)C[C@@H]1CC#N` (single isomer, unassigned) [272 (Isomer D)], 5.52 to 6.52.
On the same count and under the same terms, in the case of `C=C(F)C(=O)N1CCN(c2nc(OC[C@@H]3CCCN3C)nc3c2CC=C(c2cccc4cccc(Cl)c24)O3)C[C@H]1C` [Compound 154, 1-((R)-4-(7-(8-chloronaphthalen-1-yl)-2-(((S)-1-methylpyrrolidin-2-yl)methoxy)-5H-pyrano[2,3-d]pyrimidin-4-yl)-2-methylpiperazin-1-yl)-2-fluoroprop-2-en-1-one] it was no more than 5.52.
On the same count and under the same terms, in the case of `C=C(F)C(=O)N1CCN(c2nc(OC[C@@H]3CCCN3C)nc3c2CC=C(c2cccc4cccc(Cl)c24)O3)CC1` [Compound 174, (S)-1-(4-(7-(8-chloronaphthalen-1-yl)-2-((1-methylpyrrolidin-2-yl)methoxy)-5H-pyrano[2,3-d]pyrimidin-4-yl)piperazin-1-yl)-2-fluoroprop-2-en-1-one] it was no more than 5.52.
Regarding `C=C(F)C(=O)N1CCN(c2nc(OC[C@@H]3CCCN3C)nc3c2CC=C(c2cccc4cccc(Cl)c24)O3)C[C@@H]1CC#N` [Compound 178, 2-((S)-4-(7-(8-chloronaphthalen-1-yl)-2-(((S)-1-methylpyrrolidin-2-yl)methoxy)-5H-pyrano[2,3-d]pyrimidin-4-yl)-1-(2-fluoroacryloyl)piperazin-2-yl)acetonitrile], the pIC50 in test [1] (Homo sapiens, NCI-H358, 168 h) is 5.70 to 7.00; in test [2], no less than 6.52.
For `C=CC(=O)N1CCN(c2nc(OC[C@@H]3CCCN3C)nc3c2CC=C(c2cccc4cccc(Cl)c24)O3)C[C@@H]1CC#N` [Compound 181, 2-((S)-1-acryloyl-4-(7-(8-chloronaphthalen-1-yl)-2-(((S)-1-methylpyrrolidin-2-yl)methoxy)-5H-pyrano[2,3-d]pyrimidin-4-yl)piperazin-2-yl)acetonitrile] the same measures were no less than 7.00 and no less than 6.52.

These data come from patent US20230023009A1, “HETEROCYCLIC COMPOUNDS AND METHODS OF USE THEREOF” (SPARCBIO LLC, priority 2020, published 2023).
